Laboratory results reported in patent US20250154169A1, “COMPOUNDS AND METHODS FOR MODULATING SPLICING” (REMIX THERAPEUTICS INC., priority 2021, published 2025).
Read-outs that look alike come from different tables or passages of the source.

What was measured:
[1] = test system: Target C; experiment: Protein abundance, HiBit-assay system (Promega), Target C; type: cell-based, human; conditions: Table 6; HiBiT-modified K562 cells, 24 hours
Method: Compounds described herein were used to screen for effects on quantitative protein abundance using a HiBit assay system (Promega). Quantitative protein abundance was determined by measuring the protein levels of HiBit-tagged protein targets expressed in cell culture via luminescence using the Nano-Glo HiBiT Lytic Detection System, which uses a split complementation assay format to reconstitute NanoBiT enzyme to generate a luminescent signal. A protein abundance assay was developed such that endogenous protein targets could be modified with the HiBiT peptide tag and their abundance could be assessed after compound treatment. Briefly, K562 cell lines containing a HiBiT-modification were treated with various compounds described herein (e.g., compounds of Formulas (I) or (II)). After treatment for 24 hours, the protein abundance of a specific target was determined by measuring luminescence.
Cells were maintained in EIDM with 10% FBS. Before the assay, cells were diluted with […] growth media (EIDM+1% FBS media) and were seeded in a 384-well plate at a density of 10000 cells/well (for each cell line listed in Table 5). Each compound was prepared as a 10-point 3-fold serial dilution in DMSO with the top dose at a final concentration of 10 μM in the well. Unmodified K562 cells were added at the previously specified density with DMSO to serve as an assay baseline and positive control (PC) and DMSO only with the respective modified cell lines was added to the negative control (NC) columns. Final DMSO concentration was kept at or below 0.25%. Treated cell plates were placed in an incubator at 37° C. with 5% CO2 for 24 hours. After 24 hours, 25 μL of Complete HiBit Lytic reagent was added to each well at room temperature (e.g. one plate requiring 10 mL Lytic Buffer, 100 μL LgBiT Protein, 200 μL Lytic Substrate), shaken for 5 minutes at 600 RPM, then left to sit for 10 minutes for signal to stabilize before reading on a Spark Cyto plate reader (Tecan) with a 500 ms measurement time.
To determine compound effects on protein abundance of each target in Table 6, the percent response for each respective cell line was calculated at each compound concentration as follows:
For the normalized response at each concentration, a four-parameter logistical regression was fit to the data and the response was interpolated at the 50% value to determine a concentration for protein abundance at […] the untreated control.

[2] = test system: K562 cells; experiment: Cell Titer Glo 2.0 cell viability assay, K562; type: cell-based; conditions: Homo sapiens, 72 hours incubation
Method: Compounds described herein were screened for toxicity in K562 (human chronic myelogenous leukemia) and SH-SY5Y (human neuroblastoma) cells using a Cell Titer Glo 2.0 assay.
• Promega CellTiter-Glo® 2.0 Cell Viability Assay (cat #G9241) • Corning 384-well TC-treated microplates (cat #3570)
Cells were plated at 500 cells/well (K562 cells) in 45 μL of IMDM supplemented with 10% FBS in a 384-well opaque plate. Wells containing only medium were used as a blank control. Test compounds (e.g., compounds of Formula (I) or (II)) were first serially diluted in DMSO then diluted 1:100 with EIDM+10% FBS. The final concentration of DMSO was 0.1% in each well. The cells were incubated for 72 hours at 37° C. and 5% CO2 before assaying with Cell Titer Glo 2.0 reagent.

[3] = test system: MYB mRNA; experiment: Splicing RT-qPCR assay, MYB canonical (CJ) and alternative (AJ) junction mRNA; type: cell-based, human; conditions: Homo sapiens; for AC50: read-out: MYB AJ (AC50, increase in alternative junction mRNA)
Outline: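 Compound-induced exon inclusion is tracked as an increase in AJ transcript alongside the CJ transcript. Cells (A673 normalized to PPIA; K562 to GAPDH or GUSB) are dosed 24 h with a serial dilution topping at 10 uM, ≤0.25% DMSO, then lysed and analysed by RT-qPCR in at least duplicate.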

[4] = 24 h, A673 or K562 cells, 24 hours compound treatment, RT-qPCR
[5] = 24 h, A673 or K562 cells, 24 hours compound treatment, RT-qPCR, read-out: MYB CJ (IC50, decrease in canonical junction mRNA)
[6] = Tables 4A/4B, canonical junction qPCR panel, read-out: MYB (IC50, decrease in CJ mRNA, gene panel)

Structure (SMILES)	IC50 [1] [nM]	GI50 [2] [nM]	AC50 [3, 4] [nM]	IC50 [3, 5] [nM]	IC50 [3, 6] [nM]
Cc1cn2cc(NC(=O)c3ccc(N4CCNCC4)c4cc(C)oc34)cc(F)c2n1 [Compound 142]	1000 to 10000	100 to 1000	100 to 1000	100 to 1000	100 to 1000
Cc1cn2cc(NC(=O)c3ccc(N4CCNC5(CC5)C4)c4cc(C)oc34)cc(F)c2n1 [Compound 194]	> 10000	100 to 1000	–	–	100 to 1000
Cc1cn2cc(NC(=O)c3ccc(N4CC[C@@H](NC56CC(C5)C6)C4)c4cn(C)nc34)cc(F)c2n1 [Compound 568, 4-[(3R)-3-{bicyclo[1.1.1]pentan-1-ylamino}pyrrolidin-1-yl]-N-{8-fluoro-2-methylimidazo[1,2-a]pyridin-6-yl}-2-methylindazole-7-carboxamide]	1000 to 10000	100 to 1000	1000 to 10000	1000 to 10000	–
CCn1cc2c(N3CCNCC3)ccc(C(=O)Nc3cc(F)c4ncccc4c3)c2n1 [Compound 575]	> 10000	100 to 1000	> 10000	> 10000	–
Cc1cn2cc(NC(=O)c3ccc(N4CCNC(C)(C)C4)c4cc(C)oc34)cc(F)c2n1 [Compound 193]	> 10000	100 to 1000	100 to 1000	100 to 1000	100 to 1000
Cc1cc2c(N3CCNCC3)ccc(C(=O)Nc3cc(F)c4cn(C)nc4c3)c2o1 [Compound 217]	> 10000	100 to 1000	> 10000	> 10000	> 10000
CCn1cc2c(N3CCNCC3)ccc(C(=O)Nc3cc(F)c4nc(C)c(F)n4c3)c2n1 [Compound 565, N-{3,8-difluoro-2-methylimidazo[1,2-a]pyridin-6-yl}-2-ethyl-4-(piperazin-1-yl) indazole-7-carboxamide; trifluoroacetic acid]	> 10000	1000 to 10000	> 10000	> 10000	–
CCn1cc2c(N3CCC(N[C@H]4C[C@@H](O)C4)CC3)ccc(C(=O)Nc3cc(F)c4nc(C)cn4c3)c2n1 [Compound 559, 2-ethyl-N-{8-fluoro-2-methylimidazo[1,2-a]pyridin-6-yl}-4-(4-{[(1s,3s)-3-hydroxycyclobutyl]amino}piperidin-1-yl) indazole-7-carboxamide]	100 to 1000	< 100	< 100	< 100	–
Cc1cn2cc(NC(=O)c3ccc(N4CCNCC4)c4nc(C)oc34)cc(F)c2n1 [Compound 140]	1000 to 10000	1000 to 10000	–	–	1000 to 10000
Cc1cn2nc(NC(=O)c3ccc(N4CCNCC4)c4cc(C)oc34)cc(C)c2n1 [Compound 148]	1000 to 10000	1000 to 10000	1000 to 10000	1000 to 10000	1000 to 10000
CC1=CC2C(N3CCC(N(C)C)CC3)=CC=C(C(=O)Nc3cc(F)c4nc(C)cn4c3)C2O1 (centres unmarked) [Compound 198]	> 10000	< 100	–	–	< 100
CCn1cc2c(N3CCC(N[C@H]4C[C@H](O)C4)CC3)ccc(C(=O)Nc3cc(F)c4nc(C)cn4c3)c2n1 [Compound 560, 2-ethyl-N-{8-fluoro-2-methylimidazo[1,2-a]pyridin-6-yl}-4-(4-{[(1r,3r)-3-hydroxycyclobutyl]amino}piperidin-1-yl) indazole-7-carboxamide]	1000 to 10000	< 100	100 to 1000	100 to 1000	–
CCNC1CCN(c2ccc(C(=O)Nc3cc(F)c4nc(C)cn4c3)c3oc(C)cc23)CC1 [Compound 196]	1000 to 10000	< 100	–	–	100 to 1000
Cc1cn2cc(NC(=O)c3ccc(N4CCNC(C)C4)c4cc(C)oc34)cc(F)c2n1 (centres unmarked) [Compound 190]	1000 to 10000	100 to 1000	< 100	< 100	< 100
CCn1cc2c(N3CCC(N)(CC)CC3)cc(F)c(C(=O)Nc3cc(F)c4nc(C)cn4c3)c2n1 [Compound 557, 4-(4-amino-4-ethylpiperidin-1-yl)-2-ethyl-6-fluoro-N-{8-fluoro-2-methylimidazo[1,2-a]pyridin-6-yl}indazole-7-carboxamide]	100 to 1000	< 100	< 100	< 100	–
Cc1cn2nc(NC(=O)c3ccc(C4CCNCC4)c4cc(C)oc34)cc(C)c2n1 [Compound 118]	1000 to 10000	100 to 1000	–	–	100 to 1000
CCn1cc2c(N3CCNCC3)ccc(C(=O)Nc3cn4cc(C)nc4c(Oc4ccccc4)n3)c2n1 [Compound 566, 2-ethyl-N-{2-methyl-8-phenoxyimidazo[1,2-a]pyrazin-6-yl}-4-(piperazin-1-yl) indazole-7-carboxamide]	1000 to 10000	100 to 1000	100 to 1000	100 to 1000	–
Cc1cn2cc(NC(=O)c3c(F)cc(N4CC[C@@H](NC5CC5)C4)c4cn(C)nc34)cc(F)c2n1 [Compound 571, 4-[(3R)-3-(cyclopropylamino)pyrrolidin-1-yl]-6-fluoro-N-{8-fluoro-2-methylimidazo[1,2-a]pyridin-6-yl}-2-methylindazole-7-carboxamide]	1000 to 10000	100 to 1000	< 100	< 100	–
Cc1cn2cc(NC(=O)c3ccc(C4CCNCC4)c4cn(C)nc34)cc(F)c2n1 [Compound 208]	100 to 1000	100 to 1000	–	–	< 100
Cc1cn2cc(NC(=O)c3ccc(N4CCN(C)C(C)C4)c4cc(C)oc34)cc(F)c2n1 (centres unmarked) [Compound 191]	1000 to 10000	100 to 1000	100 to 1000	100 to 1000	100 to 1000
Cc1cn2cc(NC(=O)c3ccc(N4CC(C)(C)NC(C)(C)C4)c4cc(C)oc34)cc(F)c2n1 [Compound 195]	1000 to 10000	100 to 1000	1000 to 10000	100 to 1000	100 to 1000
Cc1cn2cc(NC(=O)c3ccc(C4CCNCC4)c4ccoc34)cc(F)c2n1 [Compound 149]	1000 to 10000	100 to 1000	100 to 1000	100 to 1000	100 to 1000
Cc1cn2cc(NC(=O)c3ccc(N4CC[C@@H](NCc5cnc(Cl)nc5)C4)c4cn(C)nc34)cc(F)c2n1 [Compound 573, 4-[(3R)-3-{[(2-chloropyrimidin-5-yl)methyl]amino}pyrrolidin-1-yl]-N-{8-fluoro-2-methylimidazo[1,2-a]pyridin-6-yl}-2-methylindazole-7-carboxamide]	> 10000	1000 to 10000	100 to 1000	100 to 1000	–
Cc1cn2cc(NC(=O)c3ccc(N4CCC(C)(NC(C)C)C4)c4cn(C)nc34)cc(F)c2n1 (centres unmarked) [Compound 574]	> 10000	100 to 1000	100 to 1000	100 to 1000	–
Cc1cn2cc(NC(=O)c3ccc(N4CCN5CCCC5C4)c4cc(C)oc34)cc(F)c2n1 (centres unmarked) [Compound 199]	> 10000	100 to 1000	100 to 1000	100 to 1000	100 to 1000
Cc1cn2cc(NC(=O)c3ccc(C4CCNCC4)c4cc(C)oc34)cc(F)c2n1 [Compound 145]	1000 to 10000	–	100 to 1000	100 to 1000	100 to 1000
